Source: the NIST ThermoML archive (doi:10.1016/j.jct.2017.01.001)
± gives the expanded uncertainty stated by the source.

Test: wn = mass fraction of the nth substance listed
Details: 100 kPa, Liquid, Pycnometric method

mass density (323.15 K, w1 = 0.5495) [kg/m3]	mass density (343.15 K, w1 = 0.5753) [kg/m3]	mass density (363.15 K, w1 = 0.5961) [kg/m3]	mass density (323.15 K, w1 = 0.323) [kg/m3]	mass density (343.15 K, w1 = 0.3141) [kg/m3]	mass density (363.15 K, w1 = 0.3071) [kg/m3]	Structure (SMILES)
1583.2 ± 20	1594.3 ± 20	1626.5 ± 20	–	–	–	O=C([O-])[O-].[K+].[K+] [potassium carbonate] + O
–	–	–	1323.5 ± 20	1310.2 ± 20	1268.7 ± 20	O=C([O-])[O-].[Na+].[Na+] [sodium carbonate] + O
